Experimental findings from ChEMBL document CHEMBL5113493, “4th generation nonsteroidal aromatase inhibitors: An iterative SAR-guided design, synthesis, and biological evaluation towards picomolar dual binding inhibitors” (Eur J Med Chem, 2022) are described below.

The structures appear in SMILES notation. Where only a bound is given, the exact number is not on record here.

In series [1] the test system is MCF-10A. Briefly: Cytotoxicity against human MCF-10A cells at 1 uM measured after 48 hrs by BrdU colorimetric immunoassay. The format is toxicity, cell-based.
The subject of series [2] is MDA-MB-231. Briefly: Cytotoxicity against human MDA-MB-231 cells at 1 uM measured after 48 hrs by BrdU colorimetric immunoassay. The class given is toxicity, cell-based. The settings on record: mda-mb-231, 48 h.
Series [3] addresses T1, Aromatase (Homo sapiens, UniProt P11511).
T1 sequence (P11511 whole entry): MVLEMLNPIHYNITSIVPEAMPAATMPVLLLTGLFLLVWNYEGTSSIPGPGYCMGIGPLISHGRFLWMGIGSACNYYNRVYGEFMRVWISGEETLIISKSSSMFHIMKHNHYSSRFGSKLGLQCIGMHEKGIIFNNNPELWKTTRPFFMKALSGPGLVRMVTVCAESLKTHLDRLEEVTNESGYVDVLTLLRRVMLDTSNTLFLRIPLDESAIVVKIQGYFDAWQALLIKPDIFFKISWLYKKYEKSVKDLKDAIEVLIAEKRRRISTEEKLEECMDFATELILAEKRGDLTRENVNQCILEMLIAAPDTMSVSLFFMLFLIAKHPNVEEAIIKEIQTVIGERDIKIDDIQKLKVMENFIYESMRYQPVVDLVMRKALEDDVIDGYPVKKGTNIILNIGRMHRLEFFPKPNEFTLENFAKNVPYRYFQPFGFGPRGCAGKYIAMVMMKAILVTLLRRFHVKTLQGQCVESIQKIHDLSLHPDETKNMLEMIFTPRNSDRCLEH
The format is cell-based, JEG-3.

The target of series [4] is T2, Cytochrome P450 1A2 (Homo sapiens, UniProt P05177).
T2 sequence (P05177 whole entry): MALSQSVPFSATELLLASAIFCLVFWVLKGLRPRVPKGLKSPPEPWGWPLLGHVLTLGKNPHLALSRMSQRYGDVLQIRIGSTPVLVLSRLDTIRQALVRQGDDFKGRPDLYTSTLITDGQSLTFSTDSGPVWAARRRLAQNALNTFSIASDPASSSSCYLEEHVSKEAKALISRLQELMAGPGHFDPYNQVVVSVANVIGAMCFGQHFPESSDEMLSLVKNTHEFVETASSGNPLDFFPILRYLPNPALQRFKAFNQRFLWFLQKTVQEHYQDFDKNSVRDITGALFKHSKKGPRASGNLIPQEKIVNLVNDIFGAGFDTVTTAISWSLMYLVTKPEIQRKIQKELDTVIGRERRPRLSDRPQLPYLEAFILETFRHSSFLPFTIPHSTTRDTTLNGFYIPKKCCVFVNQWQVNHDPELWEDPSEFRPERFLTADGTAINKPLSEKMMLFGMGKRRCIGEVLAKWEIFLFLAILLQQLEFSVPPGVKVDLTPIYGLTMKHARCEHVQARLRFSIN

The target of series [5] is Cytochrome P450 2C9 (Homo sapiens, UniProt P11712).
In series [6] the target is Cytochrome P450 2C19 (Homo sapiens, UniProt P33261).
Series [7] addresses Cytochrome P450 2D6 (Homo sapiens, UniProt P10635).
Series [8] addresses Cytochrome P450 3A4 (Homo sapiens, UniProt P08684).

Sequence of Cytochrome P450 3A4 (P08684 whole entry): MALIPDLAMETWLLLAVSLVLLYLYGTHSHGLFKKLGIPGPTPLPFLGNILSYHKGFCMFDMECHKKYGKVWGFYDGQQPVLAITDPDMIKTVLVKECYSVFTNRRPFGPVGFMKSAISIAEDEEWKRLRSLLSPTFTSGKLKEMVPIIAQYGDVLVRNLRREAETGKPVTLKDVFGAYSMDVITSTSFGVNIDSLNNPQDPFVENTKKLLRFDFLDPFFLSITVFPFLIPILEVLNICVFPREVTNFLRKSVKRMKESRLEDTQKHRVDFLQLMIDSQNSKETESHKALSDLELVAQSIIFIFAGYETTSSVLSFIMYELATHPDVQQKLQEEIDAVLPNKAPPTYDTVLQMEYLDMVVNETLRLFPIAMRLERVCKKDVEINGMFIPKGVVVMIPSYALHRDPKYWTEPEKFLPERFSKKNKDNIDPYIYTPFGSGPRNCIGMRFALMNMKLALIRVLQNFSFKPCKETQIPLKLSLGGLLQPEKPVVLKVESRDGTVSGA
Sequence of Cytochrome P450 2D6 (P10635 whole entry): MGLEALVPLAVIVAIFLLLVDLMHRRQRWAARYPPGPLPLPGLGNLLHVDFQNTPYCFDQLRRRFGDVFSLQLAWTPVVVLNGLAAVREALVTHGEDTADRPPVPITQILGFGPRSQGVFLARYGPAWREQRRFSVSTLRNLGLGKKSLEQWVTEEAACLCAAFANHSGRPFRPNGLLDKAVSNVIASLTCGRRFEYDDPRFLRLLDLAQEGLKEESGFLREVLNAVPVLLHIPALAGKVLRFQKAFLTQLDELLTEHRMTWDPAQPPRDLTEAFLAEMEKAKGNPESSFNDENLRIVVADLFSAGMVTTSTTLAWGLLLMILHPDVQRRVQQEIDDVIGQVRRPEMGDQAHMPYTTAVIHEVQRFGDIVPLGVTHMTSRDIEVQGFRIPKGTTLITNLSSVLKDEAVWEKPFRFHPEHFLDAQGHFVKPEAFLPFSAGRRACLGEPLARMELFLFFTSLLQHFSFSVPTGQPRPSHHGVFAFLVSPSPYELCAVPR
Sequence of Cytochrome P450 2C19 (P33261 whole entry): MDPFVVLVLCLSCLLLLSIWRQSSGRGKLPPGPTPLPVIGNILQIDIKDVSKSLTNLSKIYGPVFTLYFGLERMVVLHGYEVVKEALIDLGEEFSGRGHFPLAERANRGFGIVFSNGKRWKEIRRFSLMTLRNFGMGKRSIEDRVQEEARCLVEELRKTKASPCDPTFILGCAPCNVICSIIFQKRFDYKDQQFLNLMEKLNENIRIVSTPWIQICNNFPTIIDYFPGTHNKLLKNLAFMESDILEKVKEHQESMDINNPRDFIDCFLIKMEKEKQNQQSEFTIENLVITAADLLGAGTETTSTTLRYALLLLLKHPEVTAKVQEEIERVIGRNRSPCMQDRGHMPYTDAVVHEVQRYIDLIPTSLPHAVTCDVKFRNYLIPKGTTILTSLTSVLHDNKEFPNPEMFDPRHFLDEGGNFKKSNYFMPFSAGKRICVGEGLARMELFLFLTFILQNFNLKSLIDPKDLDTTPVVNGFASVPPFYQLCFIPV
Sequence of Cytochrome P450 2C9 (P11712 whole entry): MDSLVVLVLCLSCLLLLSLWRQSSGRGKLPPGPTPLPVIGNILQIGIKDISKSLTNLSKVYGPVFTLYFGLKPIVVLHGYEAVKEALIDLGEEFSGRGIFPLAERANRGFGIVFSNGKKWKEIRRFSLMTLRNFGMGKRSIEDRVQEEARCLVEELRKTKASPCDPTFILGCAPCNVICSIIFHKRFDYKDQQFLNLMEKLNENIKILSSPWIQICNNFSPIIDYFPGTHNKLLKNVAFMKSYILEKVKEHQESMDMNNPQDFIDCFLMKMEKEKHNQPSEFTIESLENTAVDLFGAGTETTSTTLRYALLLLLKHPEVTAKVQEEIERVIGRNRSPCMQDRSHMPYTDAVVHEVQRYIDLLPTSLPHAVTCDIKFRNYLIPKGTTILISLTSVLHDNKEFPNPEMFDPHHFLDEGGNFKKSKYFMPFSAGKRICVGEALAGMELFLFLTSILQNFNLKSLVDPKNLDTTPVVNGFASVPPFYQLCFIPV

Take `COc1ccc2cc(C(c3ccc(F)cc3)n3cncn3)oc2c1` (stereo not drawn): the Activity entry in series [1] and in series [2] was “Non-Toxic” throughout.

Broadly, the IC50 is the concentration at which inhibition is half-maximal. High values mean lower potency, low ones higher potency. In series [3], `CCC#CCOc1ccc2c(=O)c3ccc(Cn4ccnc4)cc3oc2c1` came in with an IC50 of 0.01 nM.

For the molecule `CCC#CCOc1cc(Cn2ccnc2)c2oc3ccccc3c(=O)c2c1`, in series [3], the IC50 turned out to be 0.77 nM.

As for `CCC#CCOc1cc(Cn2ccnc2)c2c(=O)c3ccccc3oc2c1`, half-maximal inhibition in series [3] (IC50) required 0.01 nM.

In series [3], `CC#CCOc1ccc2cc(C(c3ccc(F)cc3)n3cncn3)oc2c1` (stereo not drawn) came in with an IC50 of 4.1 nM.

For the molecule `CC#CCOc1ccc2cc(C(c3ccc(Cl)cc3)n3cncn3)oc2c1` (stereo not drawn), in series [3], the IC50 came out at 0.53 nM.

`Oc1ccc(C(c2cc3cc(Cl)ccc3o2)n2cncn2)cc1` (stereo not drawn): inhibition in series [3] was half-maximal at 30.3 nM (IC50).

Molecule `Oc1ccc2cc(C(c3ccc(F)cc3)n3cncn3)oc2c1` (stereo not drawn) yielded an IC50 in series [3] of 0.39 nM. Besides, the Activity result in series [1] and in series [2] was “Non-Toxic” throughout.

`CCC#CCOc1ccc2cc(C(c3ccc(F)cc3)n3cncn3)oc2c1` (stereo not drawn): half-maximal inhibition in series [3] (IC50) required 0.51 nM. The Activity entry in series [1] and in series [2] was “Non-Toxic” throughout.

In turn, `CCC#CCOc1ccc(C(c2cc3cc(Cl)ccc3o2)n2cncn2)cc1` (stereo not drawn) registered an IC50 in series [3] greater than 1000 nM.

`Oc1ccc2oc(C(c3ccc(Cl)cc3)n3cncn3)cc2c1` (stereo not drawn) registered an IC50 in series [3] of 5.67 nM.

In series [3], `CCC#CCOc1ccc2cc(C(c3ccc(C#N)cc3)n3cncn3)oc2c1` (stereo not drawn) gave an IC50 of 0.72 nM.

`CCOc1ccc2cc(C(c3ccc(Cl)cc3)n3cncn3)oc2c1` (stereo not drawn) yielded an IC50 in series [3] of 0.46 nM.

Turning to `COc1ccc(C(c2cc3cc(Cl)ccc3o2)n2cncn2)cc1` (stereo not drawn), the IC50 in series [3] was greater than 1000 nM.

`COc1ccc2oc(C(c3ccc(Cl)cc3)n3cncn3)cc2c1` (stereo not drawn): the IC50 in series [3] came to 2.01 nM.

For the molecule `C#CCOc1ccc2cc(C(c3ccc(Cl)cc3)n3cncn3)oc2c1` (stereo not drawn), the IC50 in series [3] is 1.03 nM.

Turning to `CC#CCOc1ccc2cc(C(c3ccc(C#N)cc3)n3cncn3)oc2c1` (stereo not drawn), the IC50 in series [3] is 0.09 nM; in series [4], 2880 nM; in series [5], greater than 25000 nM; in series [6], 2170 nM; in series [7] it was greater than 25000 nM; in series [8], greater than 25000 nM. The Activity entry in series [1] and in series [2] was “Non-Toxic” each time.

In turn, `CCC#CCOc1ccc2oc(C(c3ccc(Cl)cc3)n3cncn3)cc2c1` (stereo not drawn) had an IC50 in series [3] of 21 nM.

In series [3], `CCC#CCOc1ccc2cc(C(c3ccc(Cl)cc3)n3cncn3)oc2c1` (stereo not drawn) came in with a half-inhibitory concentration (IC50) of 2.76 nM.

On to `COc1cccc2c1C(=O)c1c(O)c3c(c(O)c1C2=O)C[C@@](O)(C(=O)CO)C[C@@H]3O[C@H]1C[C@H](N)[C@H](O)[C@H](C)O1` [DOXORUBICIN], for which the Activity result in series [1] and in series [2] was “Non-Toxic” throughout.
